Assay results as given in patent US10829499B2, “Tetracyclic heterocycle compounds useful as HIV integrase inhibitors” (MERCK SHARP & DOHME CORP., priority 2016, dated 2020).
Read-outs that look alike come from different tables or passages of the source.

Test system: HIV-1 (NL4-3 strain)
Assay: Assay for Inhibition of HIV Replication (kinetic assay, MT4-gag-GFP reporter cell line; VIKING)
Type: cell-based
Method: This assay is a kinetic assay that employs a reporter cell line (MT4-gag-GFP) to quantify the number of new cells infected in each round of replication.
MT4-GFP cells (250,000 cells/ml) were bulk-infected with HIV-1 (NL4-3 strain) at low multiplicity of infection (MOI) in RPMI cell culture medium+10% FBS for 24 hours. Cells were then washed once in RPMI cell culture medium+10% FBS and resuspended in RPMI cell culture medium+0% or 10% or 100% normal human serum (NHS). Test compounds were serial-diluted in DMSO on an ECHO® liquid handler. The infected MT4-GFP cells were added to a 384-well poly-D-lysine coated black plate with clear bottom in which the diluted test compounds were placed. The cells were seeded at 8,000 cells per well and the final DMSO concentration was 0.4%. The infected cells (Green GFP cells) were quantified at both 24 and 48 hours post incubation using Acumen eX3. Viral reproductive ratio (R0) was determined using the number of infected cells at 48 hours divided by the number of infected cells at 24 hours. Percent viral growth inhibition was calculated by [1-(R-Rtripledrug),/(RDMSO-Rtripledrug)]*100. Compound potency IP or IC50 was determined by a 4-parameter dose response curve analysis. In vitro potency in the cell-based assay in the absence of normal human serum (NHS) and the presence of 100% NHS.

[1] = MT4-GFP cells infected with HIV-1 NL4-3, 0% normal human serum (NHS), read-out: VIKING IP50 (nM) with 0% NHS
[2] = MT4-GFP cells infected with HIV-1 NL4-3, 100% normal human serum (NHS), read-out: VIKING IP50 (nM) with 100% NHS
[3] = Human immunodeficiency virus 1, NL43, MT4-GFP cells infected with HIV-1 NL4-3, 0% normal human serum (NHS), read-out: VIKING IP50 (nM) with 0% NHS
[4] = Human immunodeficiency virus 1, NL43, MT4-GFP cells infected with HIV-1 NL4-3, 100% normal human serum (NHS), read-out: VIKING IP50 (nM) with 100% NHS

| Compound | IC50 [1] | IC50 [2] | IC50 [3] | IC50 [4] |
| --- | --- | --- | --- | --- |
| C[C@H]1CN(C)C2C3CCc4c(C(=O)NCc5cccc(Cl)c5F)c(=O)c(O)c(n43)C(=O)N21 (some centres unmarked) [Compound 110] | 0.733 nM | 67.8 nM |  |  |
| CCCN1C2C3CCc4c(C(=O)NCc5cccc(Cl)c5F)c(=O)c(O)c(n43)C(=O)N2C[C@@H]1C (some centres unmarked) [Compound 108] | 1.17 nM | 80.1 nM |  |  |
| C[C@@H]1CN2C(=O)c3c(O)c(=O)c(C(=O)NCc4cccc(Cl)c4F)c4n3C(CC4)C2O1 (single isomer, unassigned) [Compound 40] | 1.84 nM | 8000 nM |  |  |
| O=C(NCc1ccc(F)cc1F)c1c2n3c(c(O)c1=O)C(=O)N1CCOC1C3CC2 (single isomer, unassigned) [Compound 7] | 2.15 nM | 1410 nM |  |  |
| CC(C)N1C[C@H](C)N2C(=O)c3c(O)c(=O)c(C(=O)NCc4cccc(Cl)c4F)c4n3C(CC4)C12 (some centres unmarked) [Compound 115] |  |  | 7.4 nM | 113 nM |
| C[C@@H]1CN2C(=O)c3c(O)c(=O)c(C(=O)NCc4cccc(Cl)c4F)c4n3C(CC4)C2O1 (single isomer, unassigned) [Compound 39] | 0.575 nM |  |  | 8000 nM |
| O=C(NCc1cccc(Cl)c1F)c1c2n3c(c(O)c1=O)C(=O)N1CCOC1C3CC2 (single isomer, unassigned) [Compound 5] | 0.409 nM | 2250 nM |  |  |
| CCNC1CC2C3OCCCN3C(=O)c3c(O)c(=O)c(C(=O)NCc4ccc(F)cc4F)c1n32 (centres unmarked) [Compound 206] | 7.11 nM | 51.6 nM |  |  |
| O=C(NCc1ccc(F)cc1)c1c2n3c(c(O)c1=O)C(=O)N1CCCOC1C3CC2 (single isomer, unassigned) [Compound 54] | 0.654 nM | 904 nM |  |  |
| C[C@@H]1COC2C3CCc4c(C(=O)NCc5ccc(F)cc5F)c(=O)c(O)c(n43)C(=O)N21 (some centres unmarked) [Compound 32] |  |  | 0.671 nM | 101 nM |
| COC1CC2C3N(C)CCN3C(=O)c3c(O)c(=O)c(C(=O)NCc4ccc(F)cc4F)c1n32 (centres unmarked) [Compound 126] | 2.42 nM | 211 nM |  |  |
| C[C@H]1CN2C(=O)c3c(O)c(=O)c(C(=O)NCc4cccc(Cl)c4F)c4n3C(CC4)C2O1 (single isomer, unassigned) [Compound 44] | 0.879 nM | 378 nM |  |  |
| O=C(NCc1cccc(F)c1F)c1c2n3c(c(O)c1=O)C(=O)N1C4CCC(C4)OC1C3CC2 (centres unmarked) [Compound 164] |  | 1390 nM | 4.89 nM |  |
| COC1CC2C3N(C)CCN3C(=O)c3c(O)c(=O)c(C(=O)NCc4ccc(F)cc4F)c1n32 (centres unmarked) [Compound 124] | 7.41 nM | 28 nM |  |  |
| C[C@H]1CCOC2C3CCc4c(C(=O)NCc5ccc(F)cc5F)c(=O)c(O)c(n43)C(=O)N21 (single isomer, unassigned) [Compound 62] | 0.83 nM | 528 nM |  |  |
| O=C(NCc1ccc(F)cc1F)c1c2n3c(c(O)c1=O)C(=O)N1CCOC1C3CC2 (single isomer, unassigned) [Compound 8] | 1 nM | 245 nM |  |  |
| O=C(NCc1cccc(Cl)c1F)c1c2n3c(c(O)c1=O)C(=O)N1CCCOC1C3CC2 (single isomer, unassigned) [Compound 50] | 0.901 nM | 1070 nM |  |  |
| O=C(NCc1ccccc1F)c1c2n3c(c(O)c1=O)C(=O)N1CCOC1C3CC2 (single isomer, unassigned) [Compound 10] |  | 226 nM | 0.813 nM |  |
| O=C(NCc1ccc(F)cc1)c1c2n3c(c(O)c1=O)C(=O)N1C4CCC(C4)OC1C3CC2 (centres unmarked) [Compound 161] | 2.67 nM | 5510 nM |  |  |
| CC(C)N1C2C3CCc4c(C(=O)NCc5cccc(Cl)c5F)c(=O)c(O)c(n43)C(=O)N2C[C@@H]1C (some centres unmarked) [Compound 106] |  |  | 3.68 nM | 88.9 nM |
| CCCN1C[C@H](C)N2C(=O)c3c(O)c(=O)c(C(=O)NCc4cccc(Cl)c4F)c4n3C(CC4)C12 (some centres unmarked) [Compound 113] |  |  | 3.58 nM | 291 nM |
| C[C@H]1CN2C(=O)c3c(O)c(=O)c(C(=O)NCc4cccc(Cl)c4F)c4n3C(CC4)C2N1 (some centres unmarked) [Compound 93] | 1.14 nM |  |  | 49 nM |
| COC1CC2C3OCCN3C(=O)c3c(O)c(=O)c(C(=O)NCc4ccc(F)cc4F)c1n32 (single isomer, unassigned) [Compound 79] | 1.79 nM | 135 nM |  |  |
| C[C@H]1COC2C3CCc4c(C(=O)NCc5ccc(F)cc5F)c(=O)c(O)c(n43)C(=O)N21 (single isomer, unassigned) [Compound 28] | 0.401 nM | 257 nM |  |  |
| CCNC1CC2C3OCCCN3C(=O)c3c(O)c(=O)c(C(=O)NCc4cccc(F)c4F)c1n32 (centres unmarked) [Compound 188] | 16.3 nM | 462 nM |  |  |

| Compound | IC50 [1] | IC50 [2] | IC50 [3] | IC50 [4] |
| --- | --- | --- | --- | --- |
| O=C(NCc1ccc(F)cc1F)c1c2n3c(c(O)c1=O)C(=O)N1CCCOC1C3CC2 (single isomer, unassigned) [Compound 58] | 0.845 nM | 1520 nM |  |  |
| C[C@@H]1COC2C3CCc4c(C(=O)NCc5cccc(Cl)c5F)c(=O)c(O)c(n43)C(=O)N21 (single isomer, unassigned) [Compound 36] |  |  | 0.826 nM | 1060 nM |
| O=C(NCc1ccc(F)c(Cl)c1)c1c2n3c(c(O)c1=O)C(=O)N1CCOC1C3CC2 (single isomer, unassigned) [Compound 23] | 1.06 nM | 2190 nM |  |  |
| O=C(NCc1c(F)cccc1F)c1c2n3c(c(O)c1=O)C(=O)N1CCOC1C3CC2 (single isomer, unassigned) [Compound 16] | 6.28 nM |  |  | 8000 nM |
| C[C@H]1CNC2C3CCc4c(-c5nnc(Cc6ccc(F)cc6F)s5)c(=O)c(O)c(n43)C(=O)N21 (some centres unmarked) [Compound 129] | 15.3 nM | 283 nM |  |  |
| O=C(NCc1ccc(F)cc1F)c1c2n3c(c(O)c1=O)C(=O)N1CCOC1C3CC2 (single isomer, unassigned) [Compound 9] |  | 1130 nM | 0.7 nM |  |
| O=C(NCc1ccc(F)cc1F)c1c2n3c(c(O)c1=O)C(=O)N1CCCCOC1C3CC2 (single isomer, unassigned) [Compound 71] | 1.25 nM | 30.7 nM |  |  |
| CCCN1C[C@H](C)N2C(=O)c3c(O)c(=O)c(C(=O)NCc4cccc(Cl)c4F)c4n3C(CC4)C12 (some centres unmarked) [Compound 114] | 6.36 nM | 175 nM |  |  |
| O=C(NCc1ccc(F)cc1)c1c2n3c(c(O)c1=O)C(=O)N1C4CCC(C4)OC1C3CC2 (centres unmarked) [Compound 163] | 4.32 nM | 1660 nM |  |  |
| COC1CC2C3N(C)CCN3C(=O)c3c(O)c(=O)c(C(=O)NCc4ccc(F)cc4F)c1n32 (centres unmarked) [Compound 127] | 1.2 nM | 11.7 nM |  |  |
| CCNC1CC2C3OCCCN3C(=O)c3c(O)c(=O)c(C(=O)NCc4ccc(F)cc4F)c1n32 (centres unmarked) [Compound 205] | 11.3 nM | 116 nM |  |  |
| CCNC1CC2C3OCCCN3C(=O)c3c(O)c(=O)c(C(=O)NCc4cccc(Cl)c4F)c1n32 (centres unmarked) [Compound 198] | 5.29 nM | 96.9 nM |  |  |
| C[C@H]1CNC2C3CCc4c(-c5nnc(Cc6ccc(F)cc6F)s5)c(=O)c(O)c(n43)C(=O)N21 (some centres unmarked) [Compound 128] | 6.69 nM |  |  | 361 nM |
| C[C@H]1COC2C3CCc4c(C(=O)NCc5ccc(F)cc5F)c(=O)c(O)c(n43)C(=O)N21 (single isomer, unassigned) [Compound 27] |  | 956 nM | 0.313 nM |  |
| C[C@H]1CNC2C3CCc4c(C(=O)NCc5cccc(Cl)c5F)c(=O)c(O)c(n43)C(=O)N21 (some centres unmarked) [Compound 88] |  |  | 0.705 nM | 13.7 nM |
| O=C(NCc1cccc(Cl)c1F)c1c2n3c(c(O)c1=O)C(=O)N1C4CCC(C4)OC1C3CC2 (centres unmarked) [Compound 153] | 4.53 nM | 95.5 nM |  |  |
| O=C(NCc1cccc(Cl)c1F)c1c2n3c(c(O)c1=O)C(=O)N1C4CCC(C4)OC1C3CC2 (centres unmarked) [Compound 155] | 2.77 nM | 7460 nM |  |  |
| CC12NCCN1C(=O)c1c(O)c(=O)c(C(=O)NCc3ccc(F)cc3F)c3n1C2CC3 (centres unmarked) [Compound 138] | 2.41 nM | 27 nM |  |  |
| CCNC1CC2C3OCCCN3C(=O)c3c(O)c(=O)c(C(=O)NCc4cccc(F)c4F)c1n32 (centres unmarked) [Compound 190] | 5.26 nM | 66.4 nM |  |  |
| CCNC1C[C@H]2[C@H]3OC4CCC(C4)N3C(=O)c3c(O)c(=O)c(C(=O)NCc4ccc(F)cc4F)c1n32 (some centres unmarked) [Compound 177] | 11.2 nM | 191 nM |  |  |
| O=C(NCc1ccc(F)c(Cl)c1F)c1c2n3c(c(O)c1=O)C(=O)N1C4CCC(C4)OC1C3CC2 (centres unmarked) [Compound 158] | 4 nM | 16100 nM |  |  |
| COC1CC2C3OCCN3C(=O)c3c(O)c(=O)c(C(=O)NCc4ccc(F)cc4F)c1n32 (single isomer, unassigned) [Compound 74] | 2.19 nM | 181 nM |  |  |
| O=C(NCc1cccc(Cl)c1F)c1c2n3c(c(O)c1=O)C(=O)N1CCCCOC1C3CC2 (single isomer, unassigned) [Compound 67] | 0.577 nM | 1470 nM |  |  |
| O=C(NCc1ccc(F)c(Cl)c1F)c1c2n3c(c(O)c1=O)C(=O)N1C4CCC(C4)OC1C3CC2 (centres unmarked) [Compound 156] | 11.8 nM | 5270 nM |  |  |
